{"source": "paper PMC7955031", "about": "“Facile accelerated specific therapeutic (FAST) platform develops antisense therapies to counter multidrug-resistant bacteria” (Communications Biology, 2021)", "key": {"ESBL KPN": {"tested_on": "ESBL KPN", "assay": "Antibiotic resistance screening (MIC)", "format": "cell-based, Klebsiella pneumoniae", "conditions": "for Antibiotic resistance characterization (R/S/I): 24 h", "method": "(§1) The clinical isolates were obtained from the lab of Nancy Madinger at the University of Colorado Anschutz campus. Clinical isolates were grown in Cation Adjusted Mueller–Hinton broth (CAMHB) (Becton, Dickinson and Company 212322) at 37 °C with 225 rpm shaking or on solid CAMHB with 1.5% agar at 37 °C. Clinical isolates were maintained as freezer stocks in […], 40% glycerol at −80 °C. Freezer stocks were streaked out onto solid CAMHB and incubated for 16 h to produce single colonies prior to experiments. For each biological replicate, a single colony was picked from solid media and grown for 16 h in liquid CAMHB prior to experiments. Non-clinical isolates, such as E. coli MG1655 (ATCC700926) and Salmonella enterica serovar Typhimurium SL1344, expressing GFP from the chromosome (rpsm::gfp)[54], were cultured in liquid 2% lysogeny broth (LB) or on 2% LB with 1.5% agar for solid plates. SL1344 cultures were supplemented with 30 µg/mL streptomycin and SL1344 strains containing plasmids pFPV (target STm) or pRG1 modified with a lacIq promotor (SL1344-holin) were supplemented with 100 µg/mL ampicillin. Freezer stocks were stored in 60% LB broth, 40% glycerol at −80 °C. Freezer stocks were streaked out onto solid LB and incubated for 16 h to produce single colonies before experiments. For biological replicates, single colonies were started in liquid LB and grown for 16 h prior to experiments. E. coli MG1655 PNA growth experiments were carried out in M9 media (1x M9 minimal media salts solution (MP Biomedicals), 2.0 mM MgSO4, and 0.1 mM CaCl2 in sterile water) with 0.4% glucose.\nSensitive/resistant breakpoints were taken from the 2016–2017 Clinical & Laboratory Standards Institute report[41] (Table S1). Liquid cultures of the clinical strains were diluted to a 0.5 McFarland standard and added to the respective antibiotic test condition. […] Strains were “sensitive” if the MIC was equal to or below the sensitive-breakpoint concentration, “resistant” if the MIC was greater than or equal to the resistant-breakpoint concentration, and “intermediate” if the MIC was in-between."}, "NDM-1 KPN": {"tested_on": "NDM-1 KPN", "format": "cell-based, Klebsiella pneumoniae", "conditions": "concentration range at which 90% of growth inhibition occurs at 24 hours, Table S2", "method": "as §1, with “For biological replicates, single colonies were started in liquid LB and grown for 16 h prior to experiments. E. coli MG1655 PNA growth experiments were carried out in M9 media (1x M9 minimal media salts solution (MP Biomedicals), 2.0 mM MgSO4, and 0.1 mM CaCl2 in sterile water) with 0.4% glucose.” left out"}, "MDR E. coli": {"tested_on": "MDR E. coli", "format": "cell-based, Escherichia coli", "conditions": "concentration range at which 90% of growth inhibition occurs at 24 hours, Table S2", "method": "as §1, with “For biological replicates, single colonies were started in liquid LB and grown for 16 h prior to experiments. E. coli MG1655 PNA growth experiments were carried out in M9 media (1x M9 minimal media salts solution (MP Biomedicals), 2.0 mM MgSO4, and 0.1 mM CaCl2 in sterile water) with 0.4% glucose.” left out"}, "CRE E. coli": {"tested_on": "CRE E. coli", "format": "cell-based, Escherichia coli", "conditions": "concentration range at which 90% of growth inhibition occurs at 24 hours, Table S2", "method": "as §1, with “For biological replicates, single colonies were started in liquid LB and grown for 16 h prior to experiments. E. coli MG1655 PNA growth experiments were carried out in M9 media (1x M9 minimal media salts solution (MP Biomedicals), 2.0 mM MgSO4, and 0.1 mM CaCl2 in sterile water) with 0.4% glucose.” left out"}, "MDR STm": {"tested_on": "MDR STm", "format": "cell-based, Salmonella enterica serovar Typhimurium", "conditions": "concentration range at which 90% of growth inhibition occurs at 24 hours, Table S2", "method": "as §1, with “For biological replicates, single colonies were started in liquid LB and grown for 16 h prior to experiments. E. coli MG1655 PNA growth experiments were carried out in M9 media (1x M9 minimal media salts solution (MP Biomedicals), 2.0 mM MgSO4, and 0.1 mM CaCl2 in sterile water) with 0.4% glucose.” left out"}}, "data": [{"compound": "CC1(C)S[C@@H]2[C@H](NC(=O)[C@H](N)c3ccccc3)C(=O)N2[C@H]1C(=O)O", "note": "[AMP, ampicillin]", "values": [{"measurement": "Antibiotic resistance characterization (R/S/I)", "setting": "ESBL KPN", "result": "R"}]}, {"compound": "CCn1cc(C(=O)O)c(=O)c2ccc(C)nc21", "note": "[NXA, nalidixic acid]", "values": [{"measurement": "Antibiotic resistance characterization (R/S/I)", "setting": "ESBL KPN", "result": "R"}]}, {"compound": "NC[C@H]1O[C@H](O[C@H]2[C@H](O)[C@@H](O[C@H]3O[C@H](CO)[C@@H](O)[C@H](N)[C@H]3O)[C@H](N)C[C@@H]2N)[C@H](O)[C@@H](O)[C@@H]1O", "note": "[KAN, kanamycin]", "values": [{"measurement": "Antibiotic MIC90", "setting": "NDM-1 KPN", "result": "> 64", "unit": "µg/mL"}, {"measurement": "Antibiotic MIC90", "setting": "MDR E. coli", "result": "< 16", "unit": "µg/mL"}, {"measurement": "Antibiotic MIC90", "setting": "CRE E. coli", "result": "> 64", "unit": "µg/mL"}, {"measurement": "Antibiotic MIC90", "setting": "ESBL KPN; ESBL KPN, concentration range at which 90% of growth inhibition occurs at 24 hours, Table S2", "result": "> 64", "unit": "µg/mL"}, {"measurement": "Antibiotic MIC90", "setting": "MDR STm", "result": "< 16", "unit": "µg/mL"}]}, {"compound": "O=C(N[C@H](CO)[C@H](O)c1ccc([N+](=O)[O-])cc1)C(Cl)Cl", "note": "[CHL, chloramphenicol]", "values": [{"measurement": "Antibiotic resistance characterization (R/S/I)", "setting": "ESBL KPN", "result": "S"}]}]}
